The structures appear in SMILES notation.

The target of this assay is T1, hM5 (human Muscarinic receptor subtype 5) (Homo sapiens, UniProt P08912).
T1 construct: expressed in transfected cells; host or cells: CHO cells (Chinese hamster ovary cells, ATCC)
T1 sequence (P08912 1-532): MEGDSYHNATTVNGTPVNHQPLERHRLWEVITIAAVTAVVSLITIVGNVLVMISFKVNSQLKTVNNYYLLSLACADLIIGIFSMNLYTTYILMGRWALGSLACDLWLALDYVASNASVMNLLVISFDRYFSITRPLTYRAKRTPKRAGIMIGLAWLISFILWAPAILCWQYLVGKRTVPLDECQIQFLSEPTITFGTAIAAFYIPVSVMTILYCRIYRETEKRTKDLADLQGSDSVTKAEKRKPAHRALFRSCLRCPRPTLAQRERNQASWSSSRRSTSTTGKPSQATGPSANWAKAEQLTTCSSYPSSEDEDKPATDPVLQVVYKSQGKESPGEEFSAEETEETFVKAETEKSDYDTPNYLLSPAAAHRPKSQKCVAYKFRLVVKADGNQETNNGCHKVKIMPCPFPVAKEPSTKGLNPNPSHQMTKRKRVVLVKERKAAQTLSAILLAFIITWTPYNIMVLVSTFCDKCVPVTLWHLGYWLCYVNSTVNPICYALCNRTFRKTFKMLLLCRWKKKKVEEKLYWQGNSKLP
As to the kind of experiment: Human M5 calcium mobilization FLIPR assay. Type of assay: cell-based. To be noted: hM5 expressed in CHO cells, intracellular Ca2+ release, read-out: hM5 EC50. How it is done: Human M1, rat M1, human M3 and human M5 Calcium Mobilization FLIPR™ Assay
The compound activity in the present invention (EC50 or IC50) is measured using a 384 plate-based imaging assay that monitors drug induced intracellular Ca^2+ release in whole cells. Activation of hM1 (human Muscarinic receptor subtype 1, gene bank access NM_000738), rM1 (rat Muscarinic receptor subtype 1, gene bank access NM_080773), hM3 (human Muscarinic receptor subtype 3, gene bank access NM_000740NM_000740) and hM5 (human Muscarinic receptor subtype 5, gene bank access NM_0121258), receptors expressed in CHO cells (Chinese hamster ovary cells, ATCC) is quantified in a Molecular Devices FLIPR II™ instrument as an increase in fluorescent signal. Inhibition of hM3 and hM5 by compounds is determined by the decrease in fluorescent signal in response to 2 nM acetylcholine activation.
Prior to experiment, the cell culture medium is removed from the plates by inversion. […] Plates are incubated at 37° C. for 60 minutes prior to start the experiment. The incubation is terminated by washing the cells four times in assay buffer, leaving a residual 25 μl buffer per well. Cell plates are then transferred to the FLIPR, ready for compound additions.
The day of experiment, acetylcholine and compounds are diluted in assay buffer in three-fold concentration range (10 points serial dilution) for addition by FLIPR instrument. For all calcium assays, a baseline reading is taken for 10 seconds followed by the addition of 12.5 μl of compounds, resulting in a total well volume of 37.5 μl. Data is collected every second for 60 pictures and then every 6 seconds for 20 pictures prior to the addition of agonist. For hM3 and hM5, before agonist addition, a second baseline reading is taken for 10 seconds followed by the addition of 12.5 μl of agonist or buffer, producing a final volume of 50 μl. After agonist stimulation, the FLIPR continues to collect data every second for 60 pictures and then every 6 seconds for 20 pictures. The fluorescence emission is read using filter 1 (emission 510-570 nm) by the FLIPR on board CCD camera.
Calcium mobilization output data are calculated as the maximal relative fluorescence unit (RFU) minus the minimal value for both compound and agonist reading frame (except for hM1 and rM1 using only the maximal RFU). Data are analyzed using sigmoidal fits of a non-linear curve-fitting program (XLfit version 4.2.2 Excel add-in version 4.2.2 build 18 math 1Q version 2.1.2 build 18). All pEC50 and plC50 values are reported as arithmetic means ±standard error of mean of ‘n’ independent experiments.
A general note: A change in cytosolic calcium serves as a functional read-out for many receptors and channels.
Usually EC50 stands for the midpoint of the concentration-response curve. With `CC1(N2CCC(n3c(=O)[nH]c4ccccc43)CC2)CCN(C(=O)OCCF)C1` (racemic) [Example 4, 2-fluoroethyl 3-methyl-3-(4-(2-oxo-2,3-dihydro-1H-benzo[d]imidazol-1-yl)piperidin-1-yl)pyrrolidine-1-carboxylate], the EC50 was above 9600 nM.
For `CCOC(=O)N1CCC(C)(N2CCC(n3c(=O)[nH]c4cc(F)ccc43)CC2)C1` (single isomer, unassigned) [Example 7, ethyl 3-(4-(5-fluoro-2-oxo-2,3-dihydro-1H-benzo[d]imidazol-1-yl)piperidin-1-yl)-3-methylpyrrolidine-1-carboxylate] the value was 3100 nM; for `CC#CCOC(=O)N1CCC(C)(N2CCC(n3c(=O)[nH]c4ccc(C)cc43)CC2)C1` (single isomer, unassigned) [Example 20, but-2-ynyl 3-methyl-3-(4-(6-methyl-2-oxo-2,3-dihydro-1H-benzo[d]imidazol-1-yl)piperidin-1-yl)pyrrolidine-1-carboxylate], 720 nM; for `CC1(N2CCC(n3c(=O)[nH]c4cc(F)ccc43)CC2)CCN(C(=O)OCCF)C1` (single isomer, unassigned) [Example 24, 2-fluoroethyl 3-(4-(5-fluoro-2-oxo-2,3-dihydro-1H-benzo[d]imidazol-1-yl)piperidin-1-yl)-3-methylpyrrolidine-1-carboxylate], 1570 nM.
The result for `Cc1ccc2[nH]c(=O)n(C3CCN(C4(C)CCN(C(=O)OCCF)C4)CC3)c2c1` (single isomer, unassigned) [Example 28, 2-fluoroethyl 3-methyl-3-(4-(6-methyl-2-oxo-2,3-dihydro-1H-benzo[d]imidazol-1-yl)piperidin-1-yl)pyrrolidine-1-carboxylate] reads 2650 nM.
`C#CCOC(=O)N1CCC(C)(N2CCC(n3c(=O)[nH]c4ccc(C)cc43)CC2)C1` (single isomer, unassigned) [Example 41, prop-2-ynyl 3-methyl-3-(4-(6-methyl-2-oxo-2,3-dihydro-1H-benzo[d]imidazol-1-yl)piperidin-1-yl)pyrrolidine-1-carboxylate]: the concentration for a half-maximal effect (EC50) was above 40000 nM.
The result for `C#CCOC(=O)N1CCC(C)(N2CCC(n3c(=O)[nH]c4ccc(C)cc43)CC2)C1` (single isomer, unassigned) [Example 43, prop-2-ynyl 3-methyl-3-(4-(6-methyl-2-oxo-2,3-dihydro-1H-benzo[d]imidazol-1-yl)piperidin-1-yl)pyrrolidine-1-carboxylate] reads 205 nM.
The result for `COC(=O)N1CCC(C)(N2CCC(n3c(=O)[nH]c4ccc(C)cc43)CC2)C1` (single isomer, unassigned) [Example 45, methyl 3-methyl-3-(4-(6-methyl-2-oxo-2,3-dihydro-1H-benzo[d]imidazol-1-yl)piperidin-1-yl)pyrrolidine-1-carboxylate] reads 1080 nM.
The result for `COC(=O)N1CCC(C)(N2CCC(n3c(=O)[nH]c4cc(C)ccc43)CC2)C1` (single isomer, unassigned) [Example 48, methyl 3-methyl-3-(4-(5-methyl-2-oxo-2,3-dihydro-1H-benzo[d]imidazol-1-yl)piperidin-1-yl)pyrrolidine-1-carboxylate] reads above 40000 nM; that for `CCOC(=O)N1CCC(C)(N2CCC(n3c(=O)[nH]c4ccc(F)cc43)CC2)C1` (single isomer, unassigned) [Example 49, ethyl 3-(4-(6-fluoro-2-oxo-2,3-dihydro-1H-benzo[d]imidazol-1-yl)piperidin-1-yl)-3-methylpyrrolidine-1-carboxylate], above 6210 nM; that for `CCOC(=O)N1CCC(C)(N2CCC(n3c(=O)[nH]c4ccc(F)cc43)CC2)C1` (single isomer, unassigned) [Example 50, ethyl 3-(4-(6-fluoro-2-oxo-2,3-dihydro-1H-benzo[d]imidazol-1-yl)piperidin-1-yl)-3-methylpyrrolidine-1-carboxylate], 3560 nM.
For the molecule `COC(=O)N1CCC(C)(N2CCC(n3c(=O)[nH]c4ccc(F)cc43)CC2)C1` (single isomer, unassigned) [Example 52, methyl 3-(4-(6-fluoro-2-oxo-2,3-dihydro-1H-benzo[d]imidazol-1-yl)piperidin-1-yl)-3-methylpyrrolidine-1-carboxylate], the 50% effective concentration (EC50) was above 9640 nM.
The result for `CC1(N2CCC(n3c(=O)[nH]c4ccc(F)cc43)CC2)CCN(C(=O)OCCF)C1` (single isomer, unassigned) [Example 53, 2-fluoroethyl 3-(4-(6-fluoro-2-oxo-2,3-dihydro-1H-benzo[d]imidazol-1-yl)piperidin-1-yl)-3-methylpyrrolidine-1-carboxylate] reads above 6160 nM; that for `CCOC(=O)N1CCC(C)(N2CCC(n3c(=O)[nH]c4cc(F)c(C)cc43)CC2)C1` (single isomer, unassigned) [Example 55, ethyl 3-(4-(5-fluoro-6-methyl-2-oxo-2,3-dihydro-1H-benzo[d]imidazol-1-yl)piperidin-1-yl)-3-methylpyrrolidine-1-carboxylate], 1820 nM; that for `CCOC(=O)N1CCC(C)(N2CCC(n3c(=O)[nH]c4cc(F)c(C)cc43)CC2)C1` (single isomer, unassigned) [Example 56, ethyl 3-(4-(5-fluoro-6-methyl-2-oxo-2,3-dihydro-1H-benzo[d]imidazol-1-yl)piperidin-1-yl)-3-methylpyrrolidine-1-carboxylate], 1280 nM.
For `CCOC(=O)N1CCC(C)(N2CCC(n3c(=O)[nH]c4cc(F)c(F)cc43)CC2)C1` (single isomer, unassigned) [Example 57, ethyl 3-(4-(5,6-difluoro-2-oxo-2,3-dihydro-1H-benzo[d]imidazol-1-yl)piperidin-1-yl)-3-methylpyrrolidine-1-carboxylate] the value was 356 nM; for `CCOC(=O)N1CCC(C)(N2CCC(n3c(=O)[nH]c4cc(F)c(F)cc43)CC2)C1` (single isomer, unassigned) [Example 58, ethyl 3-(4-(5,6-difluoro-2-oxo-2,3-dihydro-1H-benzo[d]imidazol-1-yl)piperidin-1-yl)-3-methylpyrrolidine-1-carboxylate], 2210 nM; for `COC(=O)N1CCC(C)(N2CCC(n3c(=O)[nH]c4cc(F)c(F)cc43)CC2)C1` (single isomer, unassigned) [Example 60, methyl 3-(4-(5,6-difluoro-2-oxo-2,3-dihydro-1H-benzo[d]imidazol-1-yl)piperidin-1-yl)-3-methylpyrrolidine-1-carboxylate], above 7270 nM.
The result for `CC1(N2CCC(n3c(=O)[nH]c4cc(F)c(F)cc43)CC2)CCN(C(=O)OCCF)C1` (single isomer, unassigned) [Example 61, 2-fluoroethyl 3-(4-(5,6-difluoro-2-oxo-2,3-dihydro-1H-benzo[d]imidazol-1-yl)piperidin-1-yl)-3-methylpyrrolidine-1-carboxylate] reads above 2710 nM.
In the case of `COC(=O)N1CCC(C)(N2CCC(N3C(=O)Cc4ccc(C)cc43)CC2)C1` (single isomer, unassigned) [Example 67, methyl 3-methyl-3-(4-(6-methyl-2-oxoindolin-1-yl)piperidin-1-yl)pyrrolidine-1-carboxylate], the EC50 was above 6710 nM.
`COC(=O)N1CCC(C)(N2CCC(N3C(=O)Cc4ccc(C)cc43)CC2)C1` (single isomer, unassigned) [Example 68, methyl 3-methyl-3-(4-(6-methyl-2-oxoindolin-1-yl)piperidin-1-yl)pyrrolidine-1-carboxylate]: the concentration for a half-maximal effect (EC50) was above 4080 nM.

Values taken from US20090221642A1, “MUSCARINIC RECEPTOR AGONISTS, COMPOSITIONS, METHODS OF TREATMENT THEREOF, AND PROCESSES FOR PREPARATION THEREOF-176” (AstraZeneca AB, priority 2008, published 2009).
